Laboratory results reported in article PMC11042245, “Discovery of novel SOS1 inhibitors using machine learning” (RSC Medicinal Chemistry, 2024).
Like-named read-outs stand apart in the source and are kept apart here. Each block holds one compound with its values, some of them ahead of it.

Columns and labels:
SOS1 = settings: cited from earlier work; for IC50: read-out: Actual IC50
KRAS G12C/SOS1 = molecular target: T1, KRAS G12C/SOS1 (Homo sapiens, UniProt Q07889); experiment: KRAS G12C/SOS1 PPI homogeneous time-resolved fluorescence (HTRF) assay; type: binding; settings: for inhibition at 0.5 µg/mL / inhibition at 10 µg/mL / inhibition at 40 µg/mL / inhibition at 50 µg/mL: read-out: Inhibition rate (%); for inhibition at 25 µg/mL: read-out: Inhibition rate at 25 μg mL^−1 (%)
T1 construct: purchased Cytoskeleton (SOS1); AntibodySystem (KRAS G12C)
T1 sequence (Q07889 564-1049 limits assumed): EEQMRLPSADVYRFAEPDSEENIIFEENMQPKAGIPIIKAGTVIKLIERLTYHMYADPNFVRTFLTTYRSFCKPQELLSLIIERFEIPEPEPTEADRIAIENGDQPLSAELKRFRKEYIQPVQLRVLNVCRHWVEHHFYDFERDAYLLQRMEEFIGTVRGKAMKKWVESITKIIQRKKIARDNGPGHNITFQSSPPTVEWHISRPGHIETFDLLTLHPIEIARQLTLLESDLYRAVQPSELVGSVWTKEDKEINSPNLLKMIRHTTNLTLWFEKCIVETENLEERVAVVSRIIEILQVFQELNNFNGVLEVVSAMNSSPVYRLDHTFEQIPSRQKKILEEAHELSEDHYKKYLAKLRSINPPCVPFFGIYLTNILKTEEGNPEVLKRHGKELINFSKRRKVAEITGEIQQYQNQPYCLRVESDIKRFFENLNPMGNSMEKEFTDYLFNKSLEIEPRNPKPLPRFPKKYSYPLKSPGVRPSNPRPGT
Protocol: All the test compounds were provided by the CNCL (https://www.cncl.org.cn/). […] The percentage inhibition was calculated by comparison with the buffer control group. The IC50 value was calculated by GraphPad Prism software in inhibitor versus normalized response (variable slope) mode.

[1] = 10% reserved data (Table S3), ref ChEMBL database (version 31)
[2] = converted from μg mL^−1, read-out: IC50 calculated using the molecular weight of each compound
[3] = dose-response 0.5–50 μg mL^−1, read-out: IC50 (μg mL^−1)

Compound: Cc1cccc([C@@H](C)Nc2nc(C)nc3cc(C)c(-c4ccc(=O)n(C)c4)cc23)c1 [CHEMBL4473214]
Actual pChEMBL (SOS1; [1]): 7.44

Compound: Cc1cccc([C@@H](C)Nc2nc(C)nc3ccc(C4CC[S+]([O-])CC4)cc23)c1 (some centres unmarked) [CHEMBL4561965]
Actual pChEMBL (SOS1; [1]): 7.66

Compound: CCOc1cc2c(N[C@H](C)c3ccc(F)cc3)nc(C)nc2cn1 [CHEMBL4456281]
Actual pChEMBL (SOS1; Table 3): 5.03 | IC50 (SOS1; Table 3): 9.3 µM

Compound: CCOc1cc2c(N[C@H](C)c3ccccc3)nc(C)nc2cn1 [CHEMBL4545109]
Actual pChEMBL (SOS1; Table 3): 5.69 | IC50 (SOS1; Table 3): 2.06 µM

Compound: Cc1nc(N[C@H](C)c2cccc(C(F)(F)F)c2)c2cc(-c3cc4n(n3)CCC(=O)N4)ccc2n1 [CHEMBL4570224]
Actual pChEMBL (SOS1; [1]): 7.52

Compound: COc1cc2nc(C)nc(N[C@H](C)c3ccccc3)c2cc1OC [CHEMBL5087955]
Actual pChEMBL (SOS1; Table 3): 6.34 | IC50 (SOS1; Table 3): 0.453 µM

Compound: COc1cc2nc(C)nc(N[C@H](C)c3cc(N)cc(C(F)(F)F)c3)c2cc1C1CCC(C(=O)N2CCOCC2)CC1 (some centres unmarked) [CHEMBL4451252]
Actual pChEMBL (SOS1; [1]): 7.60

Compound: COCC(=O)N1CCC(c2ccc3nc(C)nc(N[C@H](C)c4cc(N)cc(C(F)(F)F)c4)c3c2)CC1 [CHEMBL4469357]
Actual pChEMBL (SOS1; [1]): 8.70

Compound: COc1cc2nc(C)nc(N[C@H](C)c3cc(N)cc(C(F)(F)F)c3F)c2cc1C1CCC(C(=O)N(C)C)CC1 (some centres unmarked) [CHEMBL4572922]
Actual pChEMBL (SOS1; [1]): 7.46

Compound: COCCN(C)C(=O)C1CCC(c2cc3c(N[C@H](C)c4cc(N)cc(C(F)(F)F)c4)nc(C)nc3cc2OC)CC1 (some centres unmarked) [CHEMBL4513254]
Actual pChEMBL (SOS1; [1]): 8.52

Compound: CCn1ccc(-c2cc3c(N[C@H](C)c4cc(N)cc(C(F)(F)F)c4)nc(C)nc3cc2C)cc1=O [CHEMBL4551748]
Actual pChEMBL (SOS1; [1]): 8.30

Compound: COc1cc2nc(C)nc(N[C@H](C)c3cc(N)cc(C(F)(F)F)c3F)c2cc1O[C@H]1CCOC1 [CHEMBL4572076]
Actual pChEMBL (SOS1; [1]): 8.30

IC50 (KRAS G12C/SOS1; [2]): 103 µM | IC50 (KRAS G12C/SOS1; [3]): 103 µM | inhibition at 0.5 µg/mL (KRAS G12C/SOS1): 1.5 ± 1.1% | inhibition at 10 µg/mL (KRAS G12C/SOS1): 14.5 ± 3.3% | inhibition at 40 µg/mL (KRAS G12C/SOS1): 45.5% | inhibition at 50 µg/mL (KRAS G12C/SOS1): 49.9 ± 0.5% | inhibition at 25 µg/mL (KRAS G12C/SOS1): 31.1 ± 1.4%
Compound: Cc1ccc(S(=O)(=O)Nc2cnc(N3CC=C(c4ccccc4C)CC3)c(C(=O)O)c2)c(C)c1 [CL01545444]

Compound: COc1cc2nc(C)nc(N[C@H](C)c3cccc(C)c3)c2cc1-c1ccc(=O)[nH]c1 [CHEMBL4455684]
Actual pChEMBL (SOS1; [1]): 7.55

inhibition at 25 µg/mL (KRAS G12C/SOS1): 25.3 ± 0.3%
Compound: CCOCCCN(C)C1CCN(c2ncc(NC(=O)c3ccc(C)cc3)cc2C(=O)O)CC1 [CL00838284]

Compound: COc1cc2nc(C)nc(N[C@H](C)c3cc(N)cc(C(F)(F)F)c3)c2cc1O[C@H]1CCN(C(C)=O)C1 [CHEMBL4435672]
Actual pChEMBL (SOS1; [1]): 8.52

Compound: Cc1nc(N[C@H](C)c2cccc(C(F)(F)F)c2)c2cc([C@]3(O)CC[C@H](C(=O)N(C)C)CC3)ccc2n1 [CHEMBL4533487]
Actual pChEMBL (SOS1; [1]): 7.57

Compound: Cc1cccc([C@@H](C)Nc2nc(C)nc3ccc(C4CCS(=O)(=O)CC4)cc23)c1 [CHEMBL4443395]
Actual pChEMBL (SOS1; [1]): 7.54

IC50 (KRAS G12C/SOS1; [2]): 66.3 µM | IC50 (KRAS G12C/SOS1; [3]): 66.3 µM | inhibition at 0.5 µg/mL (KRAS G12C/SOS1): 3.4 ± 1.8% | inhibition at 10 µg/mL (KRAS G12C/SOS1): 24.2 ± 1.4% | inhibition at 40 µg/mL (KRAS G12C/SOS1): 55.3 ± 3.2% | inhibition at 50 µg/mL (KRAS G12C/SOS1): 60.5 ± 4% | inhibition at 25 µg/mL (KRAS G12C/SOS1): 42.9 ± 3.4%
Compound: Cc1ccccc1C1=CCN(c2ncc(NS(=O)(=O)c3ccc(C(C)C)cc3)cc2C(=O)O)CC1 [CL01545464]

Compound: COc1cc2nc(C)nc(N[C@H](C)c3cccc(C(F)(F)F)c3)c2cc1-c1ccc(C(=O)N(C)CCO)cc1 [CHEMBL4453639]
Actual pChEMBL (SOS1; [1]): 7.40

Compound: COc1cc2nc(C)nc(N[C@H](C)c3cccc(C(F)(F)CO)c3)c2cc1C1=CCC(C(=O)N(C)C)CC1 (some centres unmarked) [CHEMBL4529467]
Actual pChEMBL (SOS1; [1]): 8.70

Compound: Cc1nc(N[C@H](C)c2cccc(C(F)F)c2F)c2cc3c(cc2n1)OC[C@H]1CN(C(=O)C2(C#N)CC2)CCN31 [compound 37]
Actual pChEMBL value (SOS1; external validation data): 8.33

Compound: Cc1nc(N[C@H](C)c2cc(N)cc(C(F)(F)F)c2)c2cc(-c3cnn(CC(=O)N(C)C)c3)ccc2n1 [CHEMBL4546387]
Actual pChEMBL (SOS1; [1]): 8.10

Compound: Cc1cccc([C@@H](C)Nc2nc(C)nc3ccc([C@H]4CC[C@H](C(=O)N5CC(C#N)C5)CC4)cc23)c1 [CHEMBL4463184]
Actual pChEMBL (SOS1; [1]): 7.44

Compound: Cc1nc(N[C@H](C)c2cc(N)cc(C(F)(F)F)c2)c2cc(C3CCC(C(=O)N4CCOCC4)CC3)ccc2n1 (some centres unmarked) [CHEMBL4540213]
Actual pChEMBL (SOS1; [1]): 8.70

inhibition at 25 µg/mL (KRAS G12C/SOS1): 2 ± 0.8%
Compound: CCC(C)NC(=O)c1ccc(Cn2c(=O)c3cc(OC)c(OC)cc3n(Cc3ccccc3F)c2=O)cc1 (centres unmarked) [CL00817024]

inhibition at 25 µg/mL (KRAS G12C/SOS1): -6.5 ± 2.5%
Compound: CC(C)c1cccc2cc3c(nc12)OCCN(CCc1ccc2c(c1)OCO2)C3 [CL01132463]

Compound: Cc1nc(N[C@H](C)c2cc(N)cc(C(F)(F)F)c2C)c2cc(C3CCS(=O)(=O)CC3)ccc2n1 [CHEMBL4441820]
Actual pChEMBL (SOS1; [1]): 8.40

IC50 (KRAS G12C/SOS1; [2]): 94.6 µM | IC50 (KRAS G12C/SOS1; [3]): 94.6 µM | inhibition at 0.5 µg/mL (KRAS G12C/SOS1): -1.6 ± 0.2% | inhibition at 10 µg/mL (KRAS G12C/SOS1): 17.9 ± 3.3% | inhibition at 40 µg/mL (KRAS G12C/SOS1): 53.3 ± 0.5% | inhibition at 50 µg/mL (KRAS G12C/SOS1): 61.6 ± 4% | inhibition at 25 µg/mL (KRAS G12C/SOS1): 38 ± 3.3%
Compound: Cc1ccc(S(=O)(=O)Nc2cnc(N3CCCC3)c(C(=O)O)c2)c(C)c1 [CL01545355]

Compound: Cc1nc(N[C@H](C)c2cc(N)cc(C(F)(F)F)c2)c2cc(C3CCN(C(=O)CN(C)C)CC3)ccc2n1 [CHEMBL4539190]
Actual pChEMBL (SOS1; [1]): 8.52

IC50 (KRAS G12C/SOS1; [2]): 53.7 µM | IC50 (KRAS G12C/SOS1; [3]): 53.7 µM | inhibition at 0.5 µg/mL (KRAS G12C/SOS1): 0.8 ± 1.1% | inhibition at 10 µg/mL (KRAS G12C/SOS1): 31.9 ± 2.8% | inhibition at 40 µg/mL (KRAS G12C/SOS1): 66.6 ± 0.1% | inhibition at 50 µg/mL (KRAS G12C/SOS1): 72.3 ± 2.7% | inhibition at 25 µg/mL (KRAS G12C/SOS1): 53.8 ± 1.6%
Compound: CC(C)c1ccc(S(=O)(=O)Nc2cnc(N3CCCC3)c(C(=O)O)c2)cc1 [CL01545365]

Compound: Cc1cccc([C@@H](C)Nc2nc(C)nc3ccc(C4CCOCC4)cc23)c1 [CHEMBL4583745]
Actual pChEMBL (SOS1; [1]): 7.37

Compound: COc1cc2nc(C)nc(N[C@H](C)c3cccc(C(F)(F)F)c3)c2cc1-c1ccc(C(=O)N(C)C)cn1 [CHEMBL4515122]
Actual pChEMBL (SOS1; [1]): 7.46

Compound: COCC(=O)N1CCC(c2cc3c(N[C@H](C)c4cccc(C)c4)nc(C)nc3cc2C)CC1 [CHEMBL4448274]
Actual pChEMBL (SOS1; [1]): 7.47

Compound: CC(=O)N[C@@H]1CCN(c2cc3c(NC(C)c4ccc(-c5ccccc5CN(C)C)s4)nc(C)nc3cn2)C1 (some centres unmarked) [CHEMBL4463000]
Actual pChEMBL (SOS1; Table 3): 7.82 | IC50 (SOS1; Table 3): 0.015 µM

Compound: Cc1nc(N[C@H](C)c2cc(N)cc(C(F)(F)F)c2)c2cc([C@H]3CC[C@H](C(=O)N(C)C)CC3)c(C)cc2n1 [CHEMBL4554249]
Actual pChEMBL (SOS1; [1]): 8.70

Compound: COc1cc2nc(C)nc(N[C@H](C)c3cccc(C(F)(F)F)c3)c2cc1OC [CHEMBL5084571]
Actual pChEMBL (SOS1; Table 3): 6.97 | IC50 (SOS1; Table 3): 0.106 µM

Compound: COc1cc2nc(C)nc(N[C@H](C)c3cccc(S(N)(=O)=O)c3)c2cc1OC [CHEMBL5085531]
Actual pChEMBL (SOS1; Table 3): 7.25 | IC50 (SOS1; Table 3): 0.056 µM

Compound: CONC(=O)CC(C)c1cc2c(N[C@H](C)c3cccc(C(F)(F)F)c3)nc(C)nc2cc1C (some centres unmarked) [CHEMBL4464090]
Actual pChEMBL (SOS1; [1]): 8.10

Compound: CC(=O)N1CCC(O)(c2ccc3nc(C)nc(N[C@H](C)c4cccc(C)c4)c3c2)CC1 [CHEMBL4524954]
Actual pChEMBL (SOS1; [1]): 7.85

Compound: COc1cc2nc(C)nc(N[C@H](C)c3cccc(C(F)(F)F)c3F)c2cc1C1(O)CCC(C(=O)N(C)C)CC1 (some centres unmarked) [CHEMBL4459389]
Actual pChEMBL (SOS1; [1]): 8.30
